Test results published in ChEMBL document CHEMBL5257052, “Aromatic Polyketides from the Mangrove-Derived Streptomyces sp. SCSIO 40069” (2023).
Converted amounts (≈) assume the structure as drawn.

Experiments:
Assay type in all cases: functional
[1] = system: Acinetobacter baumannii; experiment: Antibacterial activity against Acinetobacter baumannii ATCC 19606 measured after 16 hrs by broth microdilution method
[2] = system: Vibrio alginolyticus; experiment: Antibacterial activity against Vibrio alginolyticus 13214 measured after 16 hrs by broth microdilution method
[3] = system: Staphylococcus aureus; experiment: Antibacterial activity against Staphylococcus aureus ATCC 29213 measured after 16 hrs by broth microdilution method
[4] = system: Klebsiella pneumoniae; experiment: Antibacterial activity against Klebsiella pneumoniae ATCC 13883 measured after 16 hrs by broth microdilution method
[5] = system: Micrococcus luteus; experiment: Antibacterial activity against Micrococcus luteus SCSIO ML01 measured after 16 hrs by broth microdilution method

MIC [1] [µg/mL] | MIC [2] [µg/mL] | MIC [3] [µg/mL] | MIC [4] [µg/mL] | MIC [5] [µg/mL] | SMILES
> 64 | 32 (≈ 113 µM) | 8 (≈ 28.3 µM) | 8 (≈ 28.3 µM) | 8 (≈ 28.3 µM) | CC(=O)CC1=Cc2cccc3c(C(C)=O)c(O)cc(c23)O1
> 64 | 64 (≈ 266 µM) | > 64 | > 64 | 64 (≈ 266 µM) | CC(=O)c1c(O)cc2c3c(cccc13)C=C(C)O2
64 (≈ 250 µM) | > 64 | 8 (≈ 31.2 µM) | 64 (≈ 250 µM) | 8 (≈ 31.2 µM) | CC(=O)c1c(O)cc2c3c(cccc13)C=C(CO)O2

Second part, the compound before the results:

SMILES | MIC [1] [µg/mL] | MIC [2] [µg/mL] | MIC [3] [µg/mL] | MIC [4] [µg/mL] | MIC [5] [µg/mL]
CC(=O)c1c(O)cc2c3c(cccc13)C=C(C=O)O2 | > 64 | 32 (≈ 126 µM) | > 64 | 32 (≈ 126 µM) | 32 (≈ 126 µM)
CC(=O)c1c(O)cc2c3c(cccc13)C=C([C@@H](O)[C@H](C)O)O2 | > 64 | > 64 | > 64 | > 64 | > 64
CC(=O)c1c(O)cc2c3c(cccc13)C=C([C@H](O)[C@H](C)O)O2 | > 64 | > 64 | > 64 | > 64 | > 64
CC(=O)c1c(O)cc2c3c(cccc13)C=C([C@@H](O)[C@@H](C)O)O2 | > 64 | > 64 | > 64 | > 64 | > 64
CC(=O)c1c(O)cc2c3c(cccc13)C=C([C@H](O)[C@@H](C)O)O2 | 32 (≈ 107 µM) | 64 (≈ 213 µM) | > 64 | 16 (≈ 53.3 µM) | > 64
COc1cc(Cc2cnc(N)nc2N)cc(OC)c1OC [TRIMETHOPRIM] | 0.125 (≈ 0.431 µM) | 0.125 (≈ 0.431 µM) | 2 (≈ 6.89 µM) | 0.125 (≈ 0.431 µM) | 2 (≈ 6.89 µM)
